Measurements reported in paper PMC3744471, “Mitochondria Are the Target Organelle of Differentiation-Inducing Factor-3, an Anti-Tumor Agent Isolated from Dictyostelium Discoideum” (PLoS ONE, 2013).

What was measured:
[1] = system: mitochondrial malate dehydrogenase (mMDH); set-up: method as in PMID 20173310; settings: cited from earlier work
[2] = Fluorescence microscopy: membrane permeability and cellular localization; format: cell-based, human; settings: human, pH 7.4, HeLa, read-out: Time to reach maximal level in cells
Experimental: (§1) HeLa cells were cultured for 1–2 days with 2 ml DMEM-FBS in 35-mm tissue culture dishes (Becton Dickinson), washed twice with PBS(–), and then fixed for 15–20 min at room temperature with 2 ml of 3.7% (v/v) formaldehyde in PBS(–). The cells were then washed twice with PBS(–) and used for staining with the fluorescent probes. Alternatively, the fixed cells were treated for 15–20 min with 2 ml of 0.1% (w/v) Triton X-100 in PBS(–), washed twice with PBS(–), and used for staining with the fluorescent probes. […]
(§2) For high magnification multi-color imaging, cells were incubated for the appropriate times with 2 ml of DMEM-FBS (HeLa and 3T3-L1) or MEM-α-FBS (LM8) containing various compounds in 35-mm plastic dishes (tissue culture treated µ-Dish; ibidi, Martinsried, Germany). The cells were washed twice with 2 ml of PBS(–), submerged in 2 ml of Hepes buffer (pH 7.4), and observed at room temperature with a Keyence BZ-9000 fluorescence microscope (Osaka, Japan) equipped with an oil immersion 100× lens (CFI Plan Apo VC100XH) and multi-filters that can distinguish four fluorescent probes simultaneously. […]

[3] = system: HeLa cells; experiment: as above; format: cell-based, human; settings: 20 µM
Experimental: as §1, §2

Tmax at 20 µM [2] | Time to penetrate the cell membrane [3] | SMILES | Binding to and inhibition of mMDH [1]
– | – | CCCCCC(=O)c1c(O)cc(OC)c(Cl)c1O [DIF-3, 1-(3-chloro-2,6-dihydroxy-4-methoxyphenyl)hexan-1-one] | neither binds nor inhibits mMDH
≤ 30 min | ≤ 2 min | CCCCCC(=O)c1c(O)cc(OCCCCNC(=O)CCC2=[N+]3C(=Cc4c(C)cc(C)n4[B-]3(F)F)C=C2)c(Cl)c1O [BODIPY-DIF-3] | –
